Patent US20260373266A1, “PROTEIN DEGRADERS AND USES THEREOF” (KYMERA THERAPEUTICS, INC., priority 2022, published 2026)
Read-outs that look alike come from different tables or passages of the source.

What was measured:
[1] = target: T1, DCAF1 WD40 domain (residues 1077-1390) (Homo sapiens, UniProt Q9Y4B6); experiment: DCAF1 binding assay by SPR (Biacore 8K+), DCAF1-3 KD; settings: 25 °C
T1 construct: DCAF1 WD40 domain (residues 1077-1390)

[2] = system: BRD4 (N-terminally HiBiT-tagged, HEK293T cells); experiment: BRD4 degradation in HiBiT-BRD4-HEK293T cells; type: cell-based

T1 sequence (Q9Y4B6 1077-1390): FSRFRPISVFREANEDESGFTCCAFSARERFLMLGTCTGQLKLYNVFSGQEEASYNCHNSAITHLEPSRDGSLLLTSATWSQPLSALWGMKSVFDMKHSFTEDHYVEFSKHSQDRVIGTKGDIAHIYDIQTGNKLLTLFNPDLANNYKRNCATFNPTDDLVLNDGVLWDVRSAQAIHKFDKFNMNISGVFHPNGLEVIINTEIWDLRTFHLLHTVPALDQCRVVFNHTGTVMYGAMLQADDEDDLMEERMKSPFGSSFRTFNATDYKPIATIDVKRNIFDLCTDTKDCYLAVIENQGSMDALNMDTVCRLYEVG

Kd ([1]; read-out: DCAF1-3 SPR (KD)) | Structure (SMILES) | also measured
< 10 µM | Cc1sc2c(c1C)C(c1ccc(Cl)cc1)=N[C@@H](CC(=O)NCCOCCOCCOCCOCCOCCCc1ccc(C(=O)c3[nH]cc(C(=O)N[C@@H](CC(N)=O)c4cccc(Cl)c4)c3-c3c(F)ccc(F)c3C)cc1)c1nnc(C)n1-2 [I-907] | DC50 [2]: 0.01 to 0.1 µM; Dmax [2]: B (70-90%)
– | Cc1sc2c(c1C)C(c1ccc(Cl)cc1)=N[C@@H](CC(=O)NCCOCCOCCOCCOCCCc1ccc(C(=O)c3[nH]cc(C(=O)N[C@@H](CC(N)=O)c4cccc(Cl)c4)c3-c3c(F)ccc(F)c3C)cc1)c1nnc(C)n1-2 [I-905, N—((S)-3-amino-1-(3-chlorophenyl)-3-oxopropyl)-5-(4-(1-((S)-4-(4-chlorophenyl)-2,3,9-trimethyl-6H-thieno[3,2-f][1,2,4]triazolo[4,3-a][1,4]diazepin-6-yl)-2-oxo-6,9,12,15-tetraoxa-3-azaoctadecan-18-yl)benzoyl)-4-(3,6-difluoro-2-methylphenyl)-1H-pyrrole-3-carboxamide] | Kd ([1]; DCAF1-3 SPR (KD)): < 10 µM; DC50 [2]: > 0.5 µM; Dmax [2]: B (70-90%)
10 to 100 µM | N[C@@H](c1ccccc1)c1ccc(N2CCC[C@@H](Nc3cc(N4CCOCC4)ccn3)C2)cc1 [I-683] | –
> 200 µM | Clc1cccc(N2CCC[C@@H]3[C@H]2CCN3c2cc(N3CC4CC(C4)C3)ccn2)c1 [I-707] | –
> 200 µM | NC(=O)Cc1ccc(N2CCC[C@@H](Nc3cc(N4CCOCC4)ccn3)C2)cc1 [I-863] | –
< 10 µM | Clc1cccc(N2CCC[C@H]3[C@@H]2CCN3c2cc(N3CC4CC(C4)C3)ccn2)c1 [I-717] | –
> 200 µM | Fc1cccc(N2CCC[C@@H](Nc3cc(N4C[C@H]5C[C@@H]4CO5)ncn3)C2)c1 [I-310] | –
> 200 µM | NC(=O)C[C@H](NC(=O)c1n[nH]nc1-c1ccccc1F)c1cccc(Cl)c1 [I-200] | –
> 200 µM | Fc1cccc(N2CCC[C@@H](Nc3ccnc(N4CCOCC4)c3)C2)c1 [I-18] | –
10 to 100 µM | Cc1c(F)ccc(F)c1-c1[nH]ncc1C(=O)N[C@H](c1cccc(Cl)c1)[C@H]1CCOC1 [I-968] | –
> 200 µM | Fc1cccc(N[C@@H]2CCCN(c3cc(N4CCCCC4)ccn3)C2)c1 [I-645] | –
> 200 µM | NC(=O)C[C@H](NC(=O)c1cn[nH]c1-c1ncccc1F)c1cccc(Cl)c1 [I-357] | –
> 200 µM | NC(=O)C[C@H](NC(=O)c1cn[nH]c1-c1oncc1O)c1cccc(Cl)c1 [I-161] | –
< 10 µM | CNC(=O)C[C@H](NC(=O)c1c[nH]c(C(=O)COCCOCCOCCOCCOCCNC(=O)C[C@@H]2N=C(c3ccc(Cl)cc3)c3c(sc(C)c3C)-n3c(C)nnc32)c1-c1c(F)ccc(F)c1C)c1cccc(Cl)c1 [I-910] | –
> 200 µM | CN(c1nccc(N2CCOCC2)n1)[C@@H]1CCCN(c2cccc(F)c2)C1 [I-39] | –
10 to 100 µM | O=C(O)C1C(Nc2cc(N3CCOCC3)ccn2)CCCN1c1cccc(F)c1 (stereo not drawn) [I-628] | –
10 to 100 µM | C=CC(=O)NCCCN1CCN(c2ccnc3c2CCN3C2CCCN(c3cccc(F)c3)C2)CC1 (stereo not drawn) [I-845] | –
10 to 100 µM | NC(=O)CCc1cc(N2CCC[C@@H]3[C@H]2CCN3c2cc(N3CCCCC3)ccn2)ccc1F [I-875] | –
10 to 100 µM | O=C(O)C1(c2cccc(N3CCC[C@@H](Nc4cc(N5CCOCC5)ccn4)C3)c2)CCCC1 [I-697] | –
> 200 µM | Fc1cccc(N2CCC[C@@H](n3cnc4nccc(N5CCOCC5)c43)C2)c1 [I-494] | –
> 200 µM | Fc1cccc(N2CC[C@@H]3CCCc4ncc(N5CCOCC5)cc4N[C@H]3C2)c1 [I-245] | –
< 10 µM | Cc1c(F)ccc(F)c1-c1[nH]ncc1C(=O)N[C@@H](CC(=O)N1CCC(O)C1)c1cccc(Cl)c1 (stereo partly drawn) [I-883] | –
10 to 100 µM | NC(=O)[C@H]1CC[C@@H](Nc2cc(N3CCCCC3)ccn2)CN1c1cccc(F)c1 [I-1025] | –
< 10 µM | COc1ccc(C(=O)c2[nH]cc(C(=O)N[C@@H](CC(N)=O)c3cccc(Cl)c3)c2-c2c(F)ccc(F)c2C)cc1 [I-810] | –
< 10 µM | C#Cc1cccc(F)c1-c1[nH]ncc1C(=O)N[C@@H](CC(N)=O)c1cccc(Cl)c1 [I-591] | –
> 200 µM | c1cc(N2CCOCC2)cc(N[C@@H]2CCCN(c3cnn[nH]3)C2)n1 [I-534] | –
> 200 µM | NC(=O)C[C@H](NC(=O)c1cn[nH]c1-c1ccccc1F)c1ccncc1 [I-341] | –

Kd ([1]; read-out: DCAF1-3 SPR (KD)) | Structure (SMILES) | also measured
< 10 µM | Cc1c(F)ccc(F)c1-c1c(C(=O)N[C@@H](CC(N)=O)c2cccc(Cl)c2)cn(C)c1C(=O)c1ccc(CN2CCC(C=O)CC2)cc1 [I-1037] | –
< 10 µM | Cc1ccc(Cl)cc1[C@H](CC(N)=O)NC(=O)c1cn[nH]c1-c1ccccc1F [I-583] | –
> 200 µM | Fc1cccc(N2CCC[C@@H](Nc3cc(N4CCOCC4)ncc3Cl)C2)c1 [I-406] | –
> 200 µM | C=CC(=O)N1CCC[C@@H](Nc2cc(N3CCOCC3)ccn2)C1 [I-449] | –
10 to 100 µM | O[C@@H]1C[C@@H](Nc2cc(N3CCOCC3)ccn2)CN(c2cccc(F)c2)C1 [I-274] | –
< 10 µM | Cc1sc2c(c1C)C(c1ccc(Cl)cc1)=N[C@@H](CC(=O)NCCOCCOCCOCCOCCCc1ccc(C(=O)c3c(-c4c(F)ccc(F)c4C)c(C(=O)N[C@@H](CS(C)(=O)=O)c4cccc(Cl)c4)cn3C)cc1)c1nnc(C)n1-2 [I-915] | –
< 10 µM | Cc1c(F)ccc(F)c1-c1c(C(=O)N[C@@H](CC(=O)N2CCNCC2)c2cccc(Cl)c2)c[nH]c1C#N [I-876] | –
10 to 100 µM | C=CC(=O)NCN1CCN(c2ccnc(N[C@@H]3CCCN(c4cccc(F)c4)C3)c2)CC1 [I-466] | –
< 10 µM | Cc1c(F)ccc(F)c1-c1cn(C)cc1C(=O)N[C@@H](CC(N)=O)c1cccc(Cl)c1 [I-924] | –
10 to 100 µM | NCCCc1cccc(N2CCC[C@@H](Nc3cc(N4CCOCC4)ccn3)C2)c1 [I-867] | –
10 to 100 µM | CC(=O)Nc1ccc(N2CCC[C@@H]3[C@H]2CCN3c2cc(N3CCCCC3)ccn2)cc1F [I-746] | –
> 200 µM | NC(=O)C[C@@]1(NC(=O)c2c[nH]nc2-c2ccccc2F)CCCc2cc(Cl)ccc21 [I-241] | –
> 200 µM | CN1CCN(c2ccc(N3CCC[C@@H](Nc4cc(N5CCOCC5)ccn4)C3)nc2)CC1 [I-686] | –
> 200 µM | NC(=O)C[C@](CC1CC1)(NC(=O)c1c[nH]nc1-c1ccccc1F)c1cccc(Cl)c1 [I-255] | –
> 200 µM | CC(=O)Nc1ccc(N2CCC[C@H]3[C@@H]2CCN3c2cc(N3CCCCC3)ccn2)cc1F [I-747] | –
< 10 µM | Cc1c(F)ccc(F)c1-c1c(C(=O)N[C@@H](CC(N)=O)c2cccc(Cl)c2)cn(C)c1C(=O)c1ccc(OCCOCCOCCOCCOCCOCCOCCN)cc1 [I-1015] | –
> 200 µM | O=C(Nc1ccccc1)NC1CCCN(C(=O)N2CCC=C(F)C2)C1 (stereo not drawn) [I-85] | –
< 10 µM | NC(=O)C[C@H](NC(=O)c1cn[nH]c1-c1c(F)cccc1C(F)(F)F)c1cccc(Cl)c1 [I-630] | –
> 200 µM | O[C@@H]1C[C@@H](Nc2cc(N3CCOCC3)ncn2)CN(c2cccc(F)c2)C1 [I-163] | –
100 to 200 µM | c1cnc(N2CCC[C@@H](Nc3cc(N4CCOCC4)ccn3)C2)nc1 [I-69] | –
10 to 100 µM | COCCN(c1cc(N2CCOCC2)ccn1)[C@@H]1CCCN(c2cccc(F)c2)C1 [I-76] | –
< 10 µM | N#Cc1ccc([C@H](CC(N)=O)NC(=O)c2c[nH]nc2-c2ccccc2F)cc1 [I-118] | –
< 10 µM | Cc1c(F)c(Cl)cc(F)c1-c1[nH]ncc1C(=O)N[C@@H](CC(N)=O)c1cccc(Cl)c1 [I-1043] | –
100 to 200 µM | Fc1cccc(N2CCC[C@@H](N(CC3CC3)c3nccc(N4CCOCC4)n3)C2)c1 [I-41] | –
10 to 100 µM | NC(=O)CCc1cccc(N2CCC[C@@H](Nc3cc(N4CCOCC4)ccn3)C2)c1 [I-777] | –
> 200 µM | C=CC(=O)N1CCC(c2n[nH]cc2C(=O)N[C@@H](CC(N)=O)c2cccc(Cl)c2)C1 (stereo partly drawn) [I-453] | –
